Where two headings read alike, the source gives them in different places.
Experiments:
KRAS G12D-GTP & SOS1 = KRAS G12D-GTP & SOS1 (Homo sapiens (Human), UniProt P01116, G12D); assay: KRAS G12D/SOS1 binding experiment (HTRF); settings: competitive binding
KRAS G12D-GTP & cRAF = KRAS G12D-GTP & cRAF (Homo sapiens (Human), UniProt P01116, G12D); assay: KRAS G12D/cRAF binding experiment (HTRF); settings: competitive binding
intracellular pERK = assay: Inhibitory effect on intracellular pERK, In-Cell Western, AGS cells; format: cell-based; settings: Homo sapiens, read-out: Inhibitory effect on intracellular pERK, IC50
[1] = Stability in mouse liver microsomes; format: in vitro ADME; settings: mouse, pH 7.4; for CLHep / CLin vivo / ER: 1 μM; for half-life at 1 μM / microsomal CLint at 1 μM: microsomes
Description: (§1) Objective: To evaluate the stability of the compounds of the present invention in human and mouse liver microsomes by LC-MS/MS.
(§2) The ratio of the sample peak area to the internal standard peak area was obtained by LC/MS/MS, and the content of the compounds at 0 min was regarded as 100%, and the relative content of the compounds at each time point was calculated. The half-life of the compound was calculated by plotting the “relative content of the compound” against the “incubation time”, and the intrinsic clearance was calculated, in which the half-life and intrinsic clearance of the compound in human and mouse liver microsomes were determined in Table 3 and Table 4, respectively.

[2] = Stability in human liver microsomes; format: in vitro ADME; settings: human, pH 7.4; for CLHep / ER: 1 μM; for half-life at 1 μM / microsomal CLint at 1 μM: microsomes
Description: as §1, §2

[3] = AGS cells, 3 h incubation, In-Cell Western

Chain of KRAS G12D-GTP & SOS1 (P01116-2 other isoform, or with tags, fused parts or gaps G12D): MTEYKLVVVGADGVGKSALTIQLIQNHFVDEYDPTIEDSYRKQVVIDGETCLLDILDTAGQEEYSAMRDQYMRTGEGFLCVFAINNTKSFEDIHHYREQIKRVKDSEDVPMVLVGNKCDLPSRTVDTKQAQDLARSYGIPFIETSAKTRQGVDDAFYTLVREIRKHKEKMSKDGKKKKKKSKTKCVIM
Chain of KRAS G12D-GTP & cRAF (P01116-2 other isoform, or with tags, fused parts or gaps G12D): as above

Structure (SMILES): C#Cc1c(F)ccc2cc(O)cc(-c3nc(C#C)c4c(N5CC6CCC(C5)N6)nc(OC[C@@H]5CCCN5C)nc4c3F)c12 [Compound 51]
- IC50 (KRAS G12D-GTP & SOS1): 20.8 nM
- IC50 (KRAS G12D-GTP & cRAF): 11.1 nM
- IC50 (intracellular pERK; [3]): 1.2 nM

Structure (SMILES): C#Cc1c(F)ccc2cc(O)cc(-c3nc(C#CCCCC)c4c(N5CC6CCC(C5)N6)nc(OC[C@@]56CCCN5C[C@H](F)C6)nc4c3F)c12 [Compound 39]
- CLHep [1]: 53.4 mL/min/kg
- CLin vivo [1]: 33.5 mL/min/kg
- ER [1]: 0.37
- half-life at 1 μM [1]: 1.7 h
- microsomal CLint at 1 μM [1]: 13.5 µL/min/mg
- CLHep [2]: 19.0 mL/min/kg
- ER [2]: 0.48
- half-life at 1 μM [2]: 1.52 h
- microsomal CLint at 1 μM [2]: 15.2 µL/min/mg
- IC50 (intracellular pERK; [3]): 0.5 nM

Structure (SMILES): C#CCOc1nc(-c2cc(O)cc3ccc(F)c(C#C)c23)c(F)c2nc(OC[C@@]34CCCN3C[C@H](F)C4)nc(N3CC4CCC(C3)N4)c12 [Compound 91]
- IC50 (intracellular pERK; [3]): 0.3 nM

Structure (SMILES): C#Cc1c(F)ccc2cc(O)cc(-c3nc(C#C)c4c(N5CC6CCC(C5)N6)nc(OCC5(CN6CCOCC6)CC5)nc4c3F)c12 [Compound 53]
- IC50 (KRAS G12D-GTP & SOS1): 14.6 nM
- IC50 (KRAS G12D-GTP & cRAF): 4.3 nM
- IC50 (intracellular pERK; [3]): 0.4 nM

Structure (SMILES): C#Cc1c(F)ccc2cc(O)cc(-c3nc(COC)c4c(N5CC6CCC(C5)N6)nc(OC[C@@]56CCCN5C[C@H](F)C6)nc4c3F)c12 [Compound 26]
- IC50 (intracellular pERK; [3]): 0.4 nM

Structure (SMILES): C#Cc1c(F)ccc2cc(O)cc(-c3nc(C#CCCC#N)c4c(N5CC6CCC(C5)N6)nc(OC[C@@]56CCCN5C[C@H](F)C6)nc4c3F)c12 [Compound 31]
- IC50 (KRAS G12D-GTP & SOS1): 34.6 nM
- IC50 (KRAS G12D-GTP & cRAF): 24.6 nM

Structure (SMILES): C#Cc1c(F)ccc2cc(O)cc(-c3nc(C#CCC)c4c(N5CC6CCC(C5)N6)nc(OC[C@@]56CCCN5C[C@H](F)C6)nc4c3F)c12 [Compound 24]
- IC50 (KRAS G12D-GTP & SOS1): 15.1 nM
- IC50 (KRAS G12D-GTP & cRAF): 13.6 nM
- IC50 (intracellular pERK; AGS, 3 h): 0.2 nM

Structure (SMILES): C#Cc1c(F)ccc2cc(O)cc(-c3nc(C#C)c4c(N5CC6CCC(C5)N6)nc(OCC5(CN(C)C)CC5)nc4c3F)c12 [Compound 52]
- IC50 (KRAS G12D-GTP & SOS1): 15.2 nM
- IC50 (KRAS G12D-GTP & cRAF): 7.7 nM
- IC50 (intracellular pERK; [3]): 1.5 nM

Structure (SMILES): C#Cc1c(F)ccc2cc(O)cc(-c3nc(C#CCCC(C)C)c4c(N5CC6CCC(C5)N6)nc(OC[C@@]56CCCN5C[C@H](F)C6)nc4c3F)c12 [Compound 30]
- IC50 (KRAS G12D-GTP & SOS1): 13.4 nM
- IC50 (KRAS G12D-GTP & cRAF): 8.8 nM
- IC50 (intracellular pERK; [3]): 0.8 nM

Structure (SMILES): C#Cc1c(F)ccc2cc(O)cc(-c3nc(COC)c4c(N5CC6CCC(C5)N6)nc(OC[C@@]56CCCN5C[C@H](F)C6)nc4c3F)c12 [Compound 12]
- IC50 (KRAS G12D-GTP & SOS1): 10.3 nM
- IC50 (KRAS G12D-GTP & cRAF): 9.7 nM

Structure (SMILES): C#Cc1c(F)ccc2cc(O)cc(-c3nc(C#C)c4c(N5C[C@@H]6C[C@H]5CN6)nc(OC[C@@]56CCCN5C[C@H](F)C6)nc4c3F)c12 [Compound 44]
- IC50 (KRAS G12D-GTP & SOS1): 29.6 nM
- IC50 (KRAS G12D-GTP & cRAF): 15.2 nM

Structure (SMILES): C#Cc1c(F)ccc2cccc(-c3nc(C#C)c4c(N5CC6CCC(C5)N6)nc(OC[C@@]56CCCN5C[C@H](F)C6)nc4c3F)c12 [Compound 84]
- IC50 (KRAS G12D-GTP & SOS1): 29.6 nM
- IC50 (KRAS G12D-GTP & cRAF): 20.8 nM

Structure (SMILES): C#Cc1c(F)ccc2cc(O)cc(-c3nc(C#CC4CCCC4)c4c(N5CC6CCC(C5)N6)nc(OC[C@@]56CCCN5C[C@H](F)C6)nc4c3F)c12 [Compound 28]
- IC50 (KRAS G12D-GTP & SOS1): 11.5 nM
- IC50 (KRAS G12D-GTP & cRAF): 11.1 nM

Structure (SMILES): C#Cc1c(F)ccc2cc(O)cc(-c3nc(C#C)c4c(N5CC6CC(C5)N6)nc(OC[C@@]56CCCN5C[C@H](F)C6)nc4c3F)c12 [Compound 41]
- IC50 (KRAS G12D-GTP & SOS1): 31.4 nM
- IC50 (KRAS G12D-GTP & cRAF): 22 nM

Structure (SMILES): C#Cc1c(F)ccc2cc(O)cc(-c3nc(C#C)c4c(N5CC6CCC(C5)N6)nc(OCC5CCCC5)nc4c3F)c12 [Compound 56]
- IC50 (KRAS G12D-GTP & SOS1): 15.7 nM
- IC50 (KRAS G12D-GTP & cRAF): 18.5 nM

Structure (SMILES): C#Cc1c(F)ccc2cc(O)cc(-c3nc(C#CCC(C)C)c4c(N5CC6CCC(C5)N6)nc(OC[C@@]56CCCN5C[C@H](F)C6)nc4c3F)c12 [Compound 29]
- IC50 (KRAS G12D-GTP & SOS1): 15.9 nM
- IC50 (KRAS G12D-GTP & cRAF): 14.7 nM
- IC50 (intracellular pERK; [3]): 1 nM

Structure (SMILES): [2H]C([2H])([2H])c1nc(-c2cc(O)cc3ccc(F)c(C#C)c23)c(F)c2nc(OC[C@@]34CCCN3C[C@H](F)C4)nc(N3CC4CCC(C3)N4)c12 [Compound 11]
- IC50 (KRAS G12D-GTP & SOS1): 19.8 nM
- IC50 (KRAS G12D-GTP & cRAF): 9.2 nM

Structure (SMILES): C#Cc1c(F)ccc2cc(O)cc(-c3nc(C#C)c4c(N5CCN[C@@H](C)C5)nc(OC[C@@]56CCCN5C[C@H](F)C6)nc4c3F)c12 [Compound 43]
- IC50 (KRAS G12D-GTP & SOS1): 24.1 nM
- IC50 (KRAS G12D-GTP & cRAF): 16.3 nM

Structure (SMILES): C#Cc1c(F)ccc2cc(O)cc(-c3nc(C#C)c4c(N5CC6CCC(C5)N6)nc(OCCC(F)(F)F)nc4c3F)c12 [Compound 55]
- IC50 (KRAS G12D-GTP & SOS1): 14.8 nM
- IC50 (KRAS G12D-GTP & cRAF): 9.8 nM

Structure (SMILES): C#Cc1nc(-c2cc(O)cc3cccc(F)c23)c(F)c2nc(OC[C@@]34CCCN3C[C@H](F)C4)nc(N3CC4CCC(C3)N4)c12 [Compound 68]
- IC50 (KRAS G12D-GTP & SOS1): 16.6 nM
- IC50 (KRAS G12D-GTP & cRAF): 6.5 nM
- IC50 (intracellular pERK; [3]): 0.8 nM

Structure (SMILES): C#Cc1c(F)ccc2cc(O)cc(-c3nc(C#C)c4c(N5CC6CCC(C5)N6)nc(OCC56CCCN5CCC6)nc4c3F)c12 [Compound 54]
- CLHep [1]: 31.9 mL/min/kg
- CLin vivo [1]: 23.5 mL/min/kg
- ER [1]: 0.26
- half-life at 1 μM [1]: 2.86 h
- microsomal CLint at 1 μM [1]: 8.1 µL/min/mg
- CLHep [2]: 5.6 mL/min/kg
- ER [2]: 0.21
- half-life at 1 μM [2]: 5.2 h
- microsomal CLint at 1 μM [2]: 4.4 µL/min/mg

Structure (SMILES): C#Cc1c(F)ccc2cc(O)cc(-c3nc(C(=O)OCC)c4c(N5CC6CCC(C5)N6)nc(OC[C@@]56CCCN5C[C@H](F)C6)nc4c3F)c12 [Compound 13]
- IC50 (KRAS G12D-GTP & SOS1): 11.3 nM
- IC50 (KRAS G12D-GTP & cRAF): 5.1 nM

Structure (SMILES): C#Cc1c(F)ccc2cc(O)cc(-c3nc(C#C)c4c(N5CC6CCC(C5)N6)nc(OC[C@H]5CCCN5C)nc4c3F)c12 [Compound 50]
- IC50 (KRAS G12D-GTP & SOS1): 36.2 nM
- IC50 (KRAS G12D-GTP & cRAF): 19.1 nM

Structure (SMILES): C#Cc1nc(-c2cc(O)cc(Cl)c2C2CC2)c(F)c2nc(OC[C@@]34CCCN3C[C@H](F)C4)nc(N3CC4CCC(C3)N4)c12 [Compound 78]
- IC50 (KRAS G12D-GTP & SOS1): 17.3 nM
- IC50 (KRAS G12D-GTP & cRAF): 7.5 nM

Structure (SMILES): C#Cc1c(F)ccc2cc(O)cc(-c3nc(OCCOC)c4c(N5CC6CCC(C5)N6)nc(OC[C@@]56CCCN5C[C@H](F)C6)nc4c3F)c12 [Compound 10]
- IC50 (KRAS G12D-GTP & SOS1): 13.9 nM
- IC50 (KRAS G12D-GTP & cRAF): 8.7 nM

Structure (SMILES): C#Cc1nc(-c2cc(O)cc3ccc(F)c(CC)c23)c(F)c2nc(OC[C@@]34CCCN3C[C@H](F)C4)nc(N3CC4CCC(C3)N4)c12 [Compound 65]
- IC50 (KRAS G12D-GTP & SOS1): 18.5 nM
- IC50 (KRAS G12D-GTP & cRAF): 9.9 nM
- IC50 (intracellular pERK; AGS, 3 h): 0.4 nM

Structure (SMILES): C#Cc1c(F)ccc2cc(O)cc(-c3nc(C#CCOC)c4c(N5CC6CCC(C5)N6)nc(OC[C@@]56CCCN5C[C@H](F)C6)nc4c3F)c12 [Compound 25]
- IC50 (KRAS G12D-GTP & SOS1): 16.8 nM
- IC50 (KRAS G12D-GTP & cRAF): 15 nM
- IC50 (intracellular pERK; AGS, 3 h): 0.8 nM

Structure (SMILES): C#Cc1c(F)ccc2cc(O)cc(-c3nc(OCCC(F)(F)F)c4c(N5CC6CCC(C5)N6)nc(OC[C@@]56CCCN5C[C@H](F)C6)nc4c3F)c12 [Compound 9]
- IC50 (KRAS G12D-GTP & SOS1): 12.6 nM
- IC50 (KRAS G12D-GTP & cRAF): 8.8 nM
- IC50 (intracellular pERK; [3]): 0.6 nM

Structure (SMILES): C#Cc1nc(-c2cc(O)cc3ccccc23)c(F)c2nc(OC[C@@]34CCCN3C[C@H](F)C4)nc(N3CC4CCC(C3)N4)c12 [Compound 66]
- IC50 (KRAS G12D-GTP & SOS1): 11.7 nM
- IC50 (KRAS G12D-GTP & cRAF): 5.9 nM
